In patent publication US9249129B2, “Morpholino substituted urea derivatives as mTOR inhibitors” (CELLZOME LIMITED, priority 2010, dated 2016) one finds IC50 data, which are given here for 18 molecules.

In this test the target is T1, PI3K delta (PI3Kd) (Homo sapiens, UniProt O00329).
T1 construct: endogenous in cells; host or cells: Jurkat cells (ATCC TIB-152, clone E6-1), lysate
Briefly: kinobeads assay, PI3K delta (dot blot detection). The format is binding. An outline of the steps: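 Jurkat cell lysate (5 mg/mL protein) incubated 2 h in the cold with test compound (9-step 1:3 series) and immobilized phenylthiazole/phenylmorpholin-chromen ligand beads. Bead-bound kinases eluted, detected by specific antibody dot blot with infrared readout; IC50 from dose-response curves.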

Where [1] appears, read: Table 2, Jurkat cell lysate, read-out: Inhibition values (IC50) PI3Kd.
The mark [2] stands for this setting: Table 4, read-out: Inhibition values (IC50) PI3Kd.

Read-outs that look alike come from different tables or passages of the source.

T1 sequence (O00329 whole entry): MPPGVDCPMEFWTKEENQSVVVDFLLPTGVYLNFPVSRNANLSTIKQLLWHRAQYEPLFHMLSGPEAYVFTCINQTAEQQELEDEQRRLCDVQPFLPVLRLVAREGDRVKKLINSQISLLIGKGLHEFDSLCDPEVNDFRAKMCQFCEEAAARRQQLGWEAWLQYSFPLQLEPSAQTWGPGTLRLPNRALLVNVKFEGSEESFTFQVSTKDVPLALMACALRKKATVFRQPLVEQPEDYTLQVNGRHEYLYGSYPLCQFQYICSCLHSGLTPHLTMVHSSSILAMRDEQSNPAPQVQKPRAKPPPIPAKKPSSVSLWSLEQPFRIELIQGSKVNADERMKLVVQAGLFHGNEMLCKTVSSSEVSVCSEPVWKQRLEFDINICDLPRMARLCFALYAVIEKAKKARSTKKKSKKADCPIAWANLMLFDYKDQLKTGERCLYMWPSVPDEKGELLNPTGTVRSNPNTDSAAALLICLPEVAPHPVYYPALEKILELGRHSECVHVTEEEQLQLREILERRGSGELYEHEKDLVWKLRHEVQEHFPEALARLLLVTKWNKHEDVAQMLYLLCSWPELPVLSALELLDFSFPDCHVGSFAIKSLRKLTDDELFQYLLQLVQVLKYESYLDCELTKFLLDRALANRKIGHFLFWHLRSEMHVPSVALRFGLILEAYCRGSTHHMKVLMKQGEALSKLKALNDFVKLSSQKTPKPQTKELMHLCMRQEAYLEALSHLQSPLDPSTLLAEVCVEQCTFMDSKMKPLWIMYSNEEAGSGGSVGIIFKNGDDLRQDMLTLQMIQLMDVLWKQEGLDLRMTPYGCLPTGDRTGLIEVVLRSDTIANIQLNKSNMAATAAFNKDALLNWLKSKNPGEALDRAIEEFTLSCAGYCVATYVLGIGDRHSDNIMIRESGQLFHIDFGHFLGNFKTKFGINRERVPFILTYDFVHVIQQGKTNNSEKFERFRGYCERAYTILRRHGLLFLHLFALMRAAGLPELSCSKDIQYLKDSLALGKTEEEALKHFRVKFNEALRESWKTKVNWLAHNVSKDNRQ
T1 sequence (P27986 whole entry partner): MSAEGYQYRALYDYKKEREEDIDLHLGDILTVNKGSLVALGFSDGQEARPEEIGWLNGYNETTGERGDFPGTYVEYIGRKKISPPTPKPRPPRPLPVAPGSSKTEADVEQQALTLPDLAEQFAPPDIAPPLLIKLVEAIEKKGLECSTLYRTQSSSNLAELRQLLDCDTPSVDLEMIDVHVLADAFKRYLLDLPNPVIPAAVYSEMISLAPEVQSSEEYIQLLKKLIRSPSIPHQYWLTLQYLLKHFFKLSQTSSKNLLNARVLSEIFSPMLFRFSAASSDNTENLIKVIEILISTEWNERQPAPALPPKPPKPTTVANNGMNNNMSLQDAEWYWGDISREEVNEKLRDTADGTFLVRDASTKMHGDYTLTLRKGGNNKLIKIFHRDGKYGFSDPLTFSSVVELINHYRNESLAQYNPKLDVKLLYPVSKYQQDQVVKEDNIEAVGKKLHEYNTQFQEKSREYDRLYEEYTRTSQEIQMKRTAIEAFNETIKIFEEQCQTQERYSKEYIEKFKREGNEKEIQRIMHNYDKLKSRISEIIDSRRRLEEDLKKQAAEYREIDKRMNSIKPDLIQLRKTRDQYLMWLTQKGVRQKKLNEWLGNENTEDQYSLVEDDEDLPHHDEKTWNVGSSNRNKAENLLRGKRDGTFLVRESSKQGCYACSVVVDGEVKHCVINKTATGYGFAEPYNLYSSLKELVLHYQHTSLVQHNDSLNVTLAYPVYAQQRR

One may read the IC50 as the midpoint of a concentration-inhibition curve. `CCNC(=O)Nc1ccc(-c2cc(-c3cc(F)ccc3S(C)(=O)=O)nc(N3CCOC[C@@H]3C)n2)cc1` [Example 2, (S)-1-ethyl-3-(4-(6-(5-fluoro-2-(methylsulfonyl)phenyl)-2-(3-methylmorpholino)pyrimidin-4-yl)phenyl)urea]: the IC50 was no less than 10 µM under setting [1] and no less than 10 µM under setting [2].
On to `C[C@H]1COCCN1c1nc(-c2ccc(NC(=O)NC3CC3)cc2)cc(-c2ccccc2S(C)(=O)=O)n1` [Example 4, (S)-1-cyclopropyl-3-(4-(2-(3-methylmorpholino)-6-(2-(methylsulfonyl)phenyl)pyrimidin-4-yl)phenyl)urea], for which the IC50 under setting [1] was no less than 10 µM and the IC50 under setting [2] is no less than 10 µM.
As to `C[C@H]1COCCN1c1cc(-c2ccccc2S(C)(=O)=O)nc(-c2ccc(NC(=O)NC3CC3)cc2)n1` [Example 6, (S)-1-cyclopropyl-3-(4-(4-(3-methylmorpholino)-6-(2-(methylsulfonyl)phenyl)pyrimidin-2-yl)phenyl)urea], the IC50 under setting [1] is no less than 10 µM and the half-inhibitory concentration (IC50) under setting [2] is no less than 10 µM.
As to `CCNC(=O)Nc1ccc(-c2cc(-c3ccccc3C#N)nc(N3CCOC[C@@H]3C)n2)cc1` [Example 8, (S)-1-(4-(6-(2-cyanophenyl)-2-(3-methylmorpholino)pyrimidin-4-yl)phenyl)-3-ethylurea], the IC50 is, setting by setting: under setting [1], no less than 10 µM; under setting [2], no less than 10 µM.
For the molecule `C[C@H]1COCCN1c1cc(-c2ccc(F)nc2)nc(-c2ccc(NC(=O)NC3CC3)cc2)n1` [Example 21, (S)-1-cyclopropyl-3-(4-(4-(6-fluoropyridin-3-yl)-6-(3-methylmorpholino)pyrimidin-2-yl)phenyl)urea], the IC50 runs as follows: under setting [1], no less than 10 µM; under setting [2], no less than 10 µM.
For `C[C@H]1COCCN1c1cc(-c2cncc(F)c2)nc(-c2ccc(NC(=O)NC3CC3)cc2)n1` [Example 23, (S)-1-cyclopropyl-3-(4-(4-(5-fluoropyridin-3-yl)-6-(3-methylmorpholino)pyrimidin-2-yl)phenyl)urea], the IC50 runs as follows: under setting [1], no less than 10 µM; under setting [2], no less than 10 µM.
As for `C[C@H]1COCCN1c1nc(-c2ccc(NC(=O)NC3CC3)cc2)cc(-c2cc(F)ccc2S(C)(=O)=O)n1` [Example 40, (S)-1-cyclopropyl-3-(4-(6-(5-fluoro-2-(methylsulfonyl)phenyl)-2-(3-methylmorpholino)pyrimidin-4-yl)phenyl)urea], the IC50 is, setting by setting: under setting [1], no less than 10 µM; under setting [2], no less than 10 µM.
On to `C[C@H]1COCCN1c1nc(-c2ccc(NC(=O)NCCO)cc2)cc(-c2cc(F)ccc2S(C)(=O)=O)n1` [Example 41, (S)-1-(4-(6-(5-fluoro-2-(methylsulfonyl)phenyl)-2-(3-methylmorpholino)pyrimidin-4-yl)phenyl)-3-(2-hydroxyethyl)urea], for which the IC50 reads like this: under setting [1], no less than 10 µM; under setting [2], no less than 10 µM.
Turning to `C[C@H]1COCCN1c1cc(-c2ccccn2)nc(-c2ccc(NC(=O)NC3CC3)cc2)n1` [Example 42, (S)-1-cyclopropyl-3-(4-(4-(3-methylmorpholino)-6-(pyridin-2-yl)pyrimidin-2-yl)phenyl)urea], the IC50 by setting is: under setting [1], no less than 10 µM; under setting [2], no less than 10 µM.
`C[C@H]1COCCN1c1cc(-c2ccccn2)nc(-c2ccc(NC(=O)NCCO)cc2)n1` [Example 43, (S)-1-(2-hydroxyethyl)-3-(4-(4-(3-methylmorpholino)-6-(pyridin-2-yl)pyrimidin-2-yl)phenyl)urea]: the IC50 was no less than 10 µM under setting [1] and no less than 10 µM under setting [2].
For the molecule `C[C@H]1COCCN1c1nc(-c2ccc(NC(=O)NCCF)cc2)cc(-c2cc(F)ccc2S(C)(=O)=O)n1` [Example 44, (S)-1-(4-(6-(5-fluoro-2-(methylsulfonyl)phenyl)-2-(3-methylmorpholino)pyrimidin-4-yl)phenyl)-3-(2-fluoroethyl)urea], the IC50 is, setting by setting: under setting [1], no less than 10 µM; under setting [2], no less than 10 µM.
In the case of `C[C@H]1COCCN1c1nc(-c2ccc(NC(=O)NC3CC3)cc2)cc(-c2cccnc2S(C)(=O)=O)n1` [Example 46, (S)-1-cyclopropyl-3-(4-(2-(3-methylmorpholino)-6-(2-(methylsulfonyl)pyridin-3-yl)pyrimidin-4-yl)phenyl)urea], the IC50 by setting is: under setting [1], no less than 10 µM; under setting [2], no less than 10 µM.
As for `C[C@H]1COCCN1c1nc(-c2ccc(NC(=O)NCC(F)F)cc2)cc(-c2cc(F)ccc2S(C)(=O)=O)n1` [Example 47, (S)-1-(2,2-difluoroethyl)-3-(4-(6-(5-fluoro-2-(methylsulfonyl)phenyl)-2-(3-methylmorpholino)pyrimidin-4-yl)phenyl)urea], the concentration for half-maximal inhibition (IC50) is no less than 10 µM under setting [1] and no less than 10 µM under setting [2].
For `C[C@H]1COCCN1c1ccnc(-c2ccc(NC(=O)Nc3ccncc3)cc2)n1` [Example 60, (S)-1-(4-(4-(3-methylmorpholino)pyrimidin-2-yl)phenyl)-3-(pyridin-4-yl)urea], the IC50 is, setting by setting: under setting [1], no less than 10 µM; under setting [2], no less than 10 µM.
In the case of `O=C(Nc1ccncc1)Nc1ccc(-c2nccc(N3CC4CCC(C3)O4)n2)cc1` [Example 61, 1-(4-(4-(8-oxa-3-azabicyclo[3.2.1]octan-3-yl)pyrimidin-2-yl)phenyl)-3-(pyridin-4-yl)urea], the concentration for half-maximal inhibition (IC50) by setting is: under setting [1], no less than 10 µM; under setting [2], no less than 10 µM.
As for `CS(=O)(=O)c1ccc(F)cc1-c1cc(-c2ccc(NC(=O)NCCO)cc2)nc(N2CCOCC2)n1` [Example 62, 1-(4-(6-(5-fluoro-2-(methylsulfonyl)phenyl)-2-morpholinopyrimidin-4-yl)phenyl)-3-(2-hydroxyethyl)urea], the half-inhibitory concentration (IC50) under setting [1] was no less than 10 µM and the half-maximal inhibitory concentration (IC50) under setting [2] was no less than 10 µM.
Consider `C[C@H]1COCCN1c1nc(-c2ccc(NC(=O)NCCCO)cc2)cc(-c2cc(F)ccc2S(C)(=O)=O)n1` [Example 64, (S)-1-(4-(6-(5-fluoro-2-(methylsulfonyl)phenyl)-2-(3-methylmorpholino)pyrimidin-4-yl)phenyl)-3-(3-hydroxypropyl)urea], for which the concentration for half-maximal inhibition (IC50) under setting [1] was no less than 10 µM and the IC50 under setting [2] was no less than 10 µM.
Take `C[C@H]1COCCN1c1nc(-c2ccc(NC(=O)N[C@H]3CCC[C@@H]3O)cc2)cc(-c2cc(F)ccc2S(C)(=O)=O)n1` [Example 76, 1-(4-(6-(5-fluoro-2-(methylsulfonyl)phenyl)-2-((S)-3-methylmorpholino)pyrimidin-4-yl)phenyl)-3-((1S,2S)-2-hydroxycyclopentyl)urea]: the half-maximal inhibitory concentration (IC50) under setting [2] is no less than 10 µM.
